Assay results taken from ChEMBL document CHEMBL1909046, “DrugMatrix in vitro pharmacology data”.

Assays:
[1] = target: Sodium-dependent noradrenaline transporter (Homo sapiens, UniProt P23975); assay: DRUGMATRIX: Norepinephrine Transporter radioligand binding (ligand: [125I] RTI-55); type: cell membranes, MDCK, Membrane; conditions: Not Active = under 50% inhibition at 10 µM
Substance-K receptor = target: T1, Substance-K receptor (Homo sapiens, UniProt P21452); type: cell membranes, CHO, Membrane; conditions: cho; also: in other assays of this panel Not Active means under 50% inhibition at 10 µM
T1 sequence (P21452 whole entry): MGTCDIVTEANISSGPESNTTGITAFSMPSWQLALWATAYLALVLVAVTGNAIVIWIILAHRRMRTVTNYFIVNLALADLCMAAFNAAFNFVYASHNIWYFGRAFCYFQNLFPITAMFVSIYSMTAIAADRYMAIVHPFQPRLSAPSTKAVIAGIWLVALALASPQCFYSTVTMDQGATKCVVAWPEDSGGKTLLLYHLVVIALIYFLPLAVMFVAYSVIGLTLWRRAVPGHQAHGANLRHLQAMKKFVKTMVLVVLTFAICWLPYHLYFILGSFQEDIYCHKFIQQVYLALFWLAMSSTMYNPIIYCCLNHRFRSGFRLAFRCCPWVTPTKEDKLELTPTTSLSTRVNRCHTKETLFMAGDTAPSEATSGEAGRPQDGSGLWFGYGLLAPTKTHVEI

Vasopressin V1a receptor = Vasopressin V1a receptor (Homo sapiens, UniProt P37288); type: cell membranes, Membrane; conditions: hek293; also: in other assays of this panel Not Active means under 50% inhibition at 10 µM
[2] = DRUGMATRIX: Glutamate, NMDA, Agonism radioligand binding (ligand: [3H] CGP-39653); type: cell membranes, Rattus norvegicus, Wistar, Cerebral cortex, Membrane; conditions: Not Active = under 50% inhibition at 10 µM
[3] = target: T2, 3-hydroxy-3-methylglutaryl-coenzyme A reductase (Homo sapiens, UniProt P04035); set-up: species or system Escherichia coli;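 also: enzyme inhibition assay of HMG-CoA reductase using radiolabeled [14C]HMG-CoA as substrate; in other assays of this panel Not Active means under 50% inhibition at 10 µM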
T2 sequence (P04035 whole entry): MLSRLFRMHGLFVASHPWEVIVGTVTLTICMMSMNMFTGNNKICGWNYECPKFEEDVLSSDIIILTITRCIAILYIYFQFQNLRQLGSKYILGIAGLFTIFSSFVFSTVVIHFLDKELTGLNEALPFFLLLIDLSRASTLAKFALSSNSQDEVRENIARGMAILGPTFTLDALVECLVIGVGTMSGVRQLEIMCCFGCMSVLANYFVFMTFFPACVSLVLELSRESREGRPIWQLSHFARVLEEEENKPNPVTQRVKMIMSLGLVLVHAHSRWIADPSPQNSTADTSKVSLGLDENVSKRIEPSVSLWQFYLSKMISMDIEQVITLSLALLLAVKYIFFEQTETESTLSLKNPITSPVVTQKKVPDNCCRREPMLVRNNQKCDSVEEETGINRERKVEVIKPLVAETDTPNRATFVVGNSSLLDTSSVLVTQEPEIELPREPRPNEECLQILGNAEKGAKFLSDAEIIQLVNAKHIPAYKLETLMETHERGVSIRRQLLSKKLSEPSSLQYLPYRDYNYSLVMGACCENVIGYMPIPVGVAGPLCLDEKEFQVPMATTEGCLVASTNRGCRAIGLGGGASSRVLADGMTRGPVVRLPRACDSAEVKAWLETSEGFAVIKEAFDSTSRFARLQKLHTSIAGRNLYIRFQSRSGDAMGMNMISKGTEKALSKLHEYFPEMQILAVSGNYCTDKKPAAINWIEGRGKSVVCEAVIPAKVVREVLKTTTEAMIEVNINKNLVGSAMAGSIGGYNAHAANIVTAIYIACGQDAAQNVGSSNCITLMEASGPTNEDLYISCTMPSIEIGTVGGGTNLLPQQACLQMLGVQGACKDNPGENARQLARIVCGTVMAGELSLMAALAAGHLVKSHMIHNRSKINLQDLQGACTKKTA

[4] = target: cGMP-specific 3',5'-cyclic phosphodiesterase (Homo sapiens, UniProt O76074); assay: DRUGMATRIX: Phosphodiesterase PDE5 enzyme inhibition (substrate: [3H]cGMP + cGMP); type: tissue-based, Platelet; conditions: platelet; Not Active = under 50% inhibition at 10 µM
[5] = target: Tyrosine-protein kinase Lck (Homo sapiens, UniProt P06239); assay: DRUGMATRIX: Protein Tyrosine Kinase, LCK enzyme inhibition (substrate: Poly(Glu:Tyr)); type: cell-based, Insect cells; conditions: insect cells; Not Active = under 50% inhibition at 10 µM
Chain of Tyrosine-protein kinase Lck (P06239 whole entry): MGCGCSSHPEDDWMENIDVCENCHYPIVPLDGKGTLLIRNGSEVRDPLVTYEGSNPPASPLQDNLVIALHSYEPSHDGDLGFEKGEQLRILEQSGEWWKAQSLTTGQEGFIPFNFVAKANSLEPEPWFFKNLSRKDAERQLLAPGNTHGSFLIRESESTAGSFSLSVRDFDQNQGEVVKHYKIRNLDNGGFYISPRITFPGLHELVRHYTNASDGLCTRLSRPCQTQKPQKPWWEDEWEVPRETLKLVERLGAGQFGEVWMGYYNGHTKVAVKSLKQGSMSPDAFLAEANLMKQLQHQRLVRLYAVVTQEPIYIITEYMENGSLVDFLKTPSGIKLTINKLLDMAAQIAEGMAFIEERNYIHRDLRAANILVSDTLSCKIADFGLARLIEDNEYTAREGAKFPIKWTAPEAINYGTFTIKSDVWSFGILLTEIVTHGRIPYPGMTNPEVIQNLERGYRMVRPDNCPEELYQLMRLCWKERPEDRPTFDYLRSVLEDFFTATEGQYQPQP

Chain of Sodium-dependent noradrenaline transporter (P23975 whole entry): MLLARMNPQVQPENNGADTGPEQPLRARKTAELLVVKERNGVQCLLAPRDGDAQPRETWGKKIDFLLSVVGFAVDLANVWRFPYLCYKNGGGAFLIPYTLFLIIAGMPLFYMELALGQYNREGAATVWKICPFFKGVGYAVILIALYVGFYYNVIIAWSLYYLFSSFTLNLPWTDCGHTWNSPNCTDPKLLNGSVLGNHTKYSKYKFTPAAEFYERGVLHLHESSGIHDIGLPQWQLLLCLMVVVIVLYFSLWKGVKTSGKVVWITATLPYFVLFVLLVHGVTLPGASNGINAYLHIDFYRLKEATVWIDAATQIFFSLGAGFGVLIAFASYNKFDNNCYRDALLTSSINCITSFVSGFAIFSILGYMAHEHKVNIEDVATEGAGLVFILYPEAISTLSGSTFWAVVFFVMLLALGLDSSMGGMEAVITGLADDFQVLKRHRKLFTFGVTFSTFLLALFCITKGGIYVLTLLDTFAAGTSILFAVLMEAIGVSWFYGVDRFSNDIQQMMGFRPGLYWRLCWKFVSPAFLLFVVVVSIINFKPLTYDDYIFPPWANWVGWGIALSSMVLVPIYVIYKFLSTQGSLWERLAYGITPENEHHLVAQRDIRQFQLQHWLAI
Chain of Vasopressin V1a receptor (P37288 whole entry): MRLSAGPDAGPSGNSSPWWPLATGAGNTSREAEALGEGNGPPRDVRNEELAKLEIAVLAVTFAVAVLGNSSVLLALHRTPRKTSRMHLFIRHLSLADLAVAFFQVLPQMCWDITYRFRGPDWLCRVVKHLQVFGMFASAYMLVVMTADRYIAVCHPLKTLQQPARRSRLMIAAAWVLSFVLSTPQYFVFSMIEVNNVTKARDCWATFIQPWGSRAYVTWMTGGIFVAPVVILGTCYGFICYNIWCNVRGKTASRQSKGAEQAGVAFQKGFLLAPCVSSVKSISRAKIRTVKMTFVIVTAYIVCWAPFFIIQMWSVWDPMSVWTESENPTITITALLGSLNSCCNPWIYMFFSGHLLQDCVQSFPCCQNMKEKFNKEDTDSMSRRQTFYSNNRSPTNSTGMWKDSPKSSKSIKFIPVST

Row | Structure (SMILES) | IC50 ([1]; mdck) | IC50 (Substance-K receptor) | IC50 (Vasopressin V1a receptor) | IC50 [2] | Ki [2] | IC50 [3] | IC50 [4] | IC50 [5] | IC50 ([1]; read-out: IC50) | Ki ([1]; read-out: Ki)
1 | Cc1ccc(C)c(OCCCC(C)(C)C(=O)O)c1 [GEMFIBROZIL] | Not Active | Not Active | Not Active | Not Active | Not Active | Not Active | Not Active | Not Active | – | –
2 | O=c1c(-c2ccc(O)cc2)coc2cc(O)cc(O)c12 [GENISTEIN] | Not Active | Not Active | Not Active | Not Active | Not Active | Not Active | Not Active | Not Active | – | –
3 | CCC1=C(C)CN(C(=O)NCCc2ccc(S(=O)(=O)NC(=O)N[C@H]3CC[C@H](C)CC3)cc2)C1=O [GLIMEPIRIDE] | Not Active | Not Active | Not Active | Not Active | Not Active | Not Active | Not Active | Not Active | – | –
4 | Nc1cc(-c2ccncc2)c[nH]c1=O [INAMRINONE] | Not Active | Not Active | Not Active | Not Active | Not Active | Not Active | Not Active | Not Active | – | –
5 | CCCCC1=NC2(CCCC2)C(=O)N1Cc1ccc(-c2ccccc2-c2nnn[nH]2)cc1 [IRBESARTAN] | Not Active | Not Active | Not Active | Not Active | Not Active | Not Active | Not Active | Not Active | – | –
6 | CN1CCC(=C2c3ccccc3CC(=O)c3sccc32)CC1 [KETOTIFEN] | Not Active | Not Active | Not Active | Not Active | Not Active | Not Active | Not Active | Not Active | – | –
7 | N[C@@H](Cn1ccc(=O)c(O)c1)C(=O)O [L-MIMOSINE] | Not Active | Not Active | Not Active | Not Active | Not Active | Not Active | Not Active | Not Active | – | –
8 | C[N+](C)(C)C[C@H](O)CC(=O)[O-] [LEVOCARNITINE] | Not Active | Not Active | Not Active | Not Active | Not Active | Not Active | Not Active | Not Active | – | –
9 | CCn1cc(C(=O)O)c(=O)c2cc(F)c(N3CCNC(C)C3)c(F)c21 (centres undefined) [LOMEFLOXACIN] | Not Active | Not Active | Not Active | Not Active | Not Active | Not Active | Not Active | Not Active | – | –
10 | Cc1cccc(C)c1NC(=O)C1CCCCN1C (centres undefined) [MEPIVACAINE] | Not Active | Not Active | Not Active | Not Active | Not Active | Not Active | Not Active | Not Active | – | –
11 | CN(C)C(=N)NC(=N)N [METFORMIN] | Not Active | Not Active | Not Active | Not Active | Not Active | Not Active | Not Active | Not Active | – | –
12 | CC(C)(C)NCC(O)COc1cccc2c1CC(O)C(O)C2 (centres undefined) [NADOLOL] | Not Active | Not Active | Not Active | Not Active | Not Active | Not Active | Not Active | Not Active | – | –
13 | C[C@]12CC[C@H]3[C@@H](CCC4=CC(=O)CC[C@@H]43)[C@@H]1CC[C@@H]2O [NANDROLONE] | Not Active | Not Active | Not Active | Not Active | Not Active | Not Active | Not Active | Not Active | – | –
14 | C[C@@H]1C/C=C/C=C/C=C/C=C/[C@H](O[C@@H]2O[C@H](C)[C@@H](O)[C@H](N)[C@@H]2O)C[C@@H]2O[C@](O)(C[C@@H](O)C[C@H]3O[C@@H]3/C=C/C(=O)O1)C[C@H](O)[C@H]2C(=O)O [NATAMYCIN] | Not Active | Not Active | Not Active | Not Active | Not Active | Not Active | Not Active | Not Active | – | –
15 | CN(C)C(=O)Oc1cccc([N+](C)(C)C)c1.[Br-] [NEOSTIGMINE BROMIDE] | Not Active | Not Active | Not Active | Not Active | Not Active | Not Active | Not Active | Not Active | – | –
16 | NC(=O)c1cccnc1 [NIACINAMIDE] | Not Active | Not Active | Not Active | Not Active | Not Active | Not Active | Not Active | Not Active | – | –
17 | CS(=O)(=O)Nc1ccc([N+](=O)[O-])cc1Oc1ccccc1 [NIMESULIDE] | Not Active | Not Active | Not Active | Not Active | Not Active | Not Active | Not Active | Not Active | – | –
18 | CN1C(=O)CN=C(c2ccccc2)c2cc([N+](=O)[O-])ccc21 [NIMETAZEPAM] | Not Active | Not Active | Not Active | Not Active | Not Active | Not Active | Not Active | Not Active | – | –
19 | COc1ccc2c(c1OC)C(=O)O[C@@H]2[C@H]1c2c(cc3c(c2OC)OCO3)CCN1C [NOSCAPINE] | Not Active | Not Active | Not Active | Not Active | Not Active | Not Active | Not Active | Not Active | – | –
20 | NC(=O)N1c2ccccc2CC(=O)c2ccccc21 [OXCARBAZEPINE] | Not Active | Not Active | Not Active | Not Active | Not Active | Not Active | Not Active | Not Active | – | –
21 | COc1ccnc(C[S+]([O-])c2nc3ccc(OC(F)F)cc3[nH]2)c1OC (centres undefined) [PANTOPRAZOLE] | Not Active | Not Active | Not Active | Not Active | Not Active | Not Active | Not Active | Not Active | – | –
22 | N=C(N)c1ccc(OCCCCCOc2ccc(C(=N)N)cc2)cc1 [PENTAMIDINE] | – | Not Active | Not Active | Not Active | Not Active | Not Active | Not Active | Not Active | 2.21 µM | 2.2 µM
23 | NNCCc1ccccc1 [PHENELZINE] | Not Active | Not Active | Not Active | Not Active | Not Active | Not Active | Not Active | Not Active | – | –
24 | CCc1ccc(CCOc2ccc(CC3SC(=O)NC3=O)cc2)nc1 (centres undefined) [PIOGLITAZONE] | Not Active | Not Active | Not Active | Not Active | Not Active | Not Active | Not Active | Not Active | – | –
25 | CCCNC(C)C(=O)Nc1ccccc1C (centres undefined) [PRILOCAINE] | Not Active | Not Active | Not Active | Not Active | Not Active | Not Active | Not Active | Not Active | – | –
26 | CCN(CC)CCNC(=O)c1ccc(N)cc1 [PROCAINAMIDE] | Not Active | Not Active | Not Active | Not Active | Not Active | Not Active | Not Active | Not Active | – | –
